Test results: patent publication US6358885B1, “Substituted phenylheterocyclic herbicides” (Mississippi State University, priority 1992, dated 2002)

Tests used:
Assay in all cases: Test B preemergence/postemergence greenhouse plant response rating 0 to 10
purple nutsedge = format: in vivo, Cyperus rotundus; conditions: for Plant response rating, Nutsedge: 0 to 10 scale
Excerpt: (§1) Seeds of barley (Hordeum vulgare), barnyardgrass (Echinochloa crus-galli), bedstraw (Galium aparine), blackgrass (Alopecurus myosuroides), […] (Bromus secalinus), chickweed (Stellaria media), cocklebur (Xanthium pensylvanicum), corn (Zea mays), cotton (Gossypium hirsutum), crabgrass (Digitaria spp.), giant foxtail (Setaria faberii), lambsquarters (Chenopodium album), morningglory (Ipomoea hederacea), rape (Brassica napus), rice (Oryza sativa), sorghum (Sorghum bicolor), soybean (Glycine max), sugar beet (Beta vulgaris), velvetleaf (Abutilon theophrasti), wheat (Triticum aestivum), wild buckwheat (Polygonum convolvulus), and wild oat (Avena fatua) and purple nutsedge. (Cyperus rotundus) tubers were planted and treated preemergence with test chemicals dissolved in a non-phytotoxic solvent. At the same time, these crop and weed species were also treated with postemergence applications of test chemicals. Plants ranged in height from two to eighteen cm (one to four leaf stage) for postemergence treatments. Treated plants and controls were maintained in a greenhouse for twelve to sixteen days, after which all species were compared to controls and visually evaluated. […] A dash (-) response means no test result.

barnyardgrass = format: in vivo, Echinochloa crus-galli; conditions: for Plant response rating, Barnyardgrass: 0 to 10 scale
Excerpt: as §1

rape = format: in vivo, Brassica napus; conditions: for Plant response rating, Rape: 0 to 10 scale
Excerpt: as §1

wild oat = format: in vivo, Avena fatua; conditions: for Plant response rating, Wild oat: 0 to 10 scale
Excerpt: as §1

sugar beet = format: in vivo, Beta vulgaris; conditions: for Plant response rating, Sugar beet: 0 to 10 scale
Excerpt: as §1

cocklebur = format: in vivo, Xanthium pensylvanicum; conditions: for Plant response rating, Cocklebur: 0 to 10 scale
Excerpt: as §1

corn = format: in vivo, Zea mays; conditions: for Plant response rating, Corn: 0 to 10 scale
Excerpt: as §1

lambsquarters = format: in vivo, Chenopodium album; conditions: for Plant response rating, Lambsquarter: 0 to 10 scale
Excerpt: as §1

cheatgrass = format: in vivo, Bromus secalinus; conditions: for Plant response rating, Cheatgrass: 0 to 10 scale
Excerpt: as §1

velvetleaf = format: in vivo, Abutilon theophrasti; conditions: for Plant response rating, Velvetleaf: 0 to 10 scale
Excerpt: as §1

wheat = format: in vivo, Triticum aestivum; conditions: for Plant response rating, Wheat: 0 to 10 scale
Excerpt: as §1

barley = format: in vivo, Hordeum vulgare; conditions: for Plant response rating, Barley: 0 to 10 scale
Excerpt: as §1

soybean = format: in vivo, Glycine max; conditions: for Plant response rating, Soybean: 0 to 10 scale
Excerpt: as §1

morningglory = format: in vivo, Ipomoea hederacea; conditions: for Plant response rating, Morningglory: 0 to 10 scale
Excerpt: as §1

giant foxtail = format: in vivo, Setaria faberii; conditions: for Plant response rating, Giant foxtail: 0 to 10 scale
Excerpt: as §1

wild buckwheat = format: in vivo, Polygonum convolvulus; conditions: for Plant response rating, Wild buckwheat: 0 to 10 scale
Excerpt: as §1

cotton = format: in vivo, Gossypium hirsutum; conditions: for Plant response rating, Cotton: 0 to 10 scale
Excerpt: as §1

bedstraw = format: in vivo, Galium aparine; conditions: for Plant response rating, Bedstraw: 0 to 10 scale
Excerpt: as §1

blackgrass = format: in vivo, Alopecurus myosuroides; conditions: for Plant response rating, Blackgrass: 0 to 10 scale
Excerpt: as §1

sorghum = format: in vivo, Sorghum bicolor; conditions: for Plant response rating, Sorghum: 0 to 10 scale
Excerpt: as §1

rice = format: in vivo, Oryza sativa; conditions: for Plant response rating, Rice: 0 to 10 scale
Excerpt: as §1

crabgrass = format: in vivo, Digitaria spp.; conditions: for Plant response rating, Crabgrass: 0 to 10 scale
Excerpt: as §1

chickweed = format: in vivo, Stellaria media; conditions: for Plant response rating, Chickweed: 0 to 10 scale
Excerpt: as §1

## CC(C)OC(=O)COc1cc(-c2nn3c(c2Br)CCCC3)c(F)cc1Cl [Compound 64]
Purple nutsedge; POSTEMERGENCE, Rate 50 g/ha
  Plant response rating, Nutsedge: 2
Purple nutsedge; PREEMERGENCE, Rate 50 g/ha
  Plant response rating, Nutsedge: 0
Purple nutsedge; PREEMERGENCE, Rate 200 g/ha
  Plant response rating (0 to 10 scale), Nutsedge: 0
Purple nutsedge; Rate 200 g/ha, POSTEMERGENCE
  Plant response rating, Nutsedge: 2
barnyardgrass; POSTEMERGENCE, Rate 50 g/ha
  Plant response rating, Barnyardgrass: 5
barnyardgrass; PREEMERGENCE, Rate 50 g/ha
  Plant response rating, Barnyardgrass: 0
barnyardgrass; PREEMERGENCE, Rate 200 g/ha
  Plant response rating (0 to 10 scale), Barnyardgrass: 1
barnyardgrass; Rate 200 g/ha, POSTEMERGENCE
  Plant response rating, Barnyardgrass: 7
rape; POSTEMERGENCE, Rate 50 g/ha
  Plant response rating, Rape: 7
rape; PREEMERGENCE, Rate 50 g/ha
  Plant response rating, Rape: 0
rape; PREEMERGENCE, Rate 200 g/ha
  Plant response rating (0 to 10 scale), Rape: 0
rape; Rate 200 g/ha, POSTEMERGENCE
  Plant response rating, Rape: 10
Wild oat; POSTEMERGENCE, Rate 50 g/ha
  Plant response rating, Wild oat: 3
Wild oat; PREEMERGENCE, Rate 50 g/ha
  Plant response rating, Wild oat: 0
Wild oat; PREEMERGENCE, Rate 200 g/ha
  Plant response rating (0 to 10 scale), Wild oat: 0
Wild oat; Rate 200 g/ha, POSTEMERGENCE
  Plant response rating, Wild oat: 3
Sugar beet; POSTEMERGENCE, Rate 50 g/ha
  Plant response rating, Sugar beet: 10
Sugar beet; PREEMERGENCE, Rate 50 g/ha
  Plant response rating, Sugar beet: 9
Sugar beet; PREEMERGENCE, Rate 200 g/ha
  Plant response rating (0 to 10 scale), Sugar beet: 10
Sugar beet; Rate 200 g/ha, POSTEMERGENCE
  Plant response rating, Sugar beet: 10
cocklebur; POSTEMERGENCE, Rate 50 g/ha
  Plant response rating, Cocklebur: 10
cocklebur; PREEMERGENCE, Rate 50 g/ha
  Plant response rating, Cocklebur: 0
cocklebur; PREEMERGENCE, Rate 200 g/ha
  Plant response rating (0 to 10 scale), Cocklebur: 2
cocklebur; Rate 200 g/ha, POSTEMERGENCE
  Plant response rating, Cocklebur: 10
corn; POSTEMERGENCE, Rate 50 g/ha
  Plant response rating, Corn: 5
corn; PREEMERGENCE, Rate 50 g/ha
  Plant response rating, Corn: 0
corn; PREEMERGENCE, Rate 200 g/ha
  Plant response rating (0 to 10 scale), Corn: 0
corn; Rate 200 g/ha, POSTEMERGENCE
  Plant response rating, Corn: 3
lambsquarters; POSTEMERGENCE, Rate 50 g/ha
  Plant response rating, Lambsquarter: 9
lambsquarters; PREEMERGENCE, Rate 50 g/ha
  Plant response rating, Lambsquarter: 10
lambsquarters; PREEMERGENCE, Rate 200 g/ha
  Plant response rating (0 to 10 scale), Lambsquarter: 10
lambsquarters; Rate 200 g/ha, POSTEMERGENCE
  Plant response rating, Lambsquarter: 10
cheatgrass; POSTEMERGENCE, Rate 50 g/ha
  Plant response rating, Cheatgrass: 2
cheatgrass; PREEMERGENCE, Rate 50 g/ha
  Plant response rating, Cheatgrass: 2
cheatgrass; PREEMERGENCE, Rate 200 g/ha
  Plant response rating (0 to 10 scale), Cheatgrass: 2
cheatgrass; Rate 200 g/ha, POSTEMERGENCE
  Plant response rating, Cheatgrass: 3
velvetleaf; POSTEMERGENCE, Rate 50 g/ha
  Plant response rating, Velvetleaf: 10
velvetleaf; PREEMERGENCE, Rate 50 g/ha
  Plant response rating, Velvetleaf: 3
velvetleaf; PREEMERGENCE, Rate 200 g/ha
  Plant response rating (0 to 10 scale), Velvetleaf: 6
velvetleaf; Rate 200 g/ha, POSTEMERGENCE
  Plant response rating, Velvetleaf: 10
wheat; POSTEMERGENCE, Rate 50 g/ha
  Plant response rating, Wheat: 3
wheat; PREEMERGENCE, Rate 50 g/ha
  Plant response rating, Wheat: 0
wheat; PREEMERGENCE, Rate 200 g/ha
  Plant response rating (0 to 10 scale), Wheat: 0
wheat; Rate 200 g/ha, POSTEMERGENCE
  Plant response rating, Wheat: 2
barley; POSTEMERGENCE, Rate 50 g/ha
  Plant response rating, Barley: 2
barley; PREEMERGENCE, Rate 50 g/ha
  Plant response rating, Barley: 0
barley; PREEMERGENCE, Rate 200 g/ha
  Plant response rating (0 to 10 scale), Barley: 0
barley; Rate 200 g/ha, POSTEMERGENCE
  Plant response rating, Barley: 3
soybean; POSTEMERGENCE, Rate 50 g/ha
  Plant response rating, Soybean: 6
soybean; PREEMERGENCE, Rate 50 g/ha
  Plant response rating, Soybean: 0
soybean; PREEMERGENCE, Rate 200 g/ha
  Plant response rating (0 to 10 scale), Soybean: 0
soybean; Rate 200 g/ha, POSTEMERGENCE
  Plant response rating, Soybean: 5
morningglory; POSTEMERGENCE, Rate 50 g/ha
  Plant response rating, Morningglory: 9
morningglory; PREEMERGENCE, Rate 50 g/ha
  Plant response rating, Morningglory: 0
morningglory; PREEMERGENCE, Rate 200 g/ha
  Plant response rating (0 to 10 scale), Morningglory: 8
morningglory; Rate 200 g/ha, POSTEMERGENCE
  Plant response rating, Morningglory: 10
Giant foxtail; POSTEMERGENCE, Rate 50 g/ha
  Plant response rating, Giant foxtail: 3
Giant foxtail; PREEMERGENCE, Rate 50 g/ha
  Plant response rating, Giant foxtail: 0
Giant foxtail; PREEMERGENCE, Rate 200 g/ha
  Plant response rating (0 to 10 scale), Giant foxtail: 0
Giant foxtail; Rate 200 g/ha, POSTEMERGENCE
  Plant response rating, Giant foxtail: 3
Wild buckwheat; POSTEMERGENCE, Rate 50 g/ha
  Plant response rating, Wild buckwheat: 10
Wild buckwheat; PREEMERGENCE, Rate 50 g/ha
  Plant response rating, Wild buckwheat: 5
Wild buckwheat; PREEMERGENCE, Rate 200 g/ha
  Plant response rating (0 to 10 scale), Wild buckwheat: 10
Wild buckwheat; Rate 200 g/ha, POSTEMERGENCE
  Plant response rating, Wild buckwheat: 10
cotton; POSTEMERGENCE, Rate 50 g/ha
  Plant response rating, Cotton: 10
cotton; PREEMERGENCE, Rate 50 g/ha
  Plant response rating, Cotton: 0
cotton; PREEMERGENCE, Rate 200 g/ha
  Plant response rating (0 to 10 scale), Cotton: 0
cotton; Rate 200 g/ha, POSTEMERGENCE
  Plant response rating, Cotton: 10
bedstraw; POSTEMERGENCE, Rate 50 g/ha
  Plant response rating, Bedstraw: 10
bedstraw; PREEMERGENCE, Rate 50 g/ha
  Plant response rating, Bedstraw: 0
bedstraw; PREEMERGENCE, Rate 200 g/ha
  Plant response rating (0 to 10 scale), Bedstraw: 1
bedstraw; Rate 200 g/ha, POSTEMERGENCE
  Plant response rating, Bedstraw: 10
blackgrass; POSTEMERGENCE, Rate 50 g/ha
  Plant response rating, Blackgrass: 2
blackgrass; PREEMERGENCE, Rate 50 g/ha
  Plant response rating, Blackgrass: 1
blackgrass; PREEMERGENCE, Rate 200 g/ha
  Plant response rating (0 to 10 scale), Blackgrass: 2
blackgrass; Rate 200 g/ha, POSTEMERGENCE
  Plant response rating, Blackgrass: 3
sorghum; POSTEMERGENCE, Rate 50 g/ha
  Plant response rating, Sorghum: 4
sorghum; PREEMERGENCE, Rate 50 g/ha
  Plant response rating, Sorghum: 0
sorghum; PREEMERGENCE, Rate 200 g/ha
  Plant response rating (0 to 10 scale), Sorghum: 0
sorghum; Rate 200 g/ha, POSTEMERGENCE
  Plant response rating, Sorghum: 4
rice; POSTEMERGENCE, Rate 50 g/ha
  Plant response rating, Rice: 4
rice; PREEMERGENCE, Rate 50 g/ha
  Plant response rating, Rice: 0
rice; PREEMERGENCE, Rate 200 g/ha
  Plant response rating (0 to 10 scale), Rice: 2
rice; Rate 200 g/ha, POSTEMERGENCE
  Plant response rating, Rice: 5
crabgrass; POSTEMERGENCE, Rate 50 g/ha
  Plant response rating, Crabgrass: 3
crabgrass; PREEMERGENCE, Rate 50 g/ha
  Plant response rating, Crabgrass: 0
crabgrass; PREEMERGENCE, Rate 200 g/ha
  Plant response rating (0 to 10 scale), Crabgrass: 0
crabgrass; Rate 200 g/ha, POSTEMERGENCE
  Plant response rating, Crabgrass: 5
chickweed; POSTEMERGENCE, Rate 50 g/ha
  Plant response rating, Chickweed: 2
chickweed; PREEMERGENCE, Rate 50 g/ha
  Plant response rating, Chickweed: 0
chickweed; PREEMERGENCE, Rate 200 g/ha
  Plant response rating (0 to 10 scale), Chickweed: 0
chickweed; Rate 200 g/ha, POSTEMERGENCE
  Plant response rating, Chickweed: 5
